Test results published in the NIST ThermoML archive (doi:10.1021/je400722h).
± gives the expanded uncertainty stated by the source.

Assays:
[1] = 101 kPa, Liquid; for speed of sound: Pulse-echo method; for mass density: Vibrating tube method
[2] = xn = mol fraction of the nth substance listed; conditions: 101 kPa, Liquid, x2 = 0; for speed of sound: Pulse-echo method; for mass density: Vibrating tube method

SMILES	speed of sound ([1]; 298.15 K)	mass density ([1]; 298.15 K)	speed of sound ([1]; 303.15 K)	mass density ([1]; 303.15 K)	speed of sound ([1]; 308.15 K)	mass density ([1]; 308.15 K)	speed of sound ([2]; 298.15 K)	mass density ([2]; 298.15 K)	speed of sound ([2]; 303.15 K)	mass density ([2]; 303.15 K)	speed of sound ([2]; 308.15 K)	mass density ([2]; 308.15 K)
C1COCO1 [1,3-dioxolane] + Cc1ccccc1Cl	–	–	–	–	–	–	1338.7 ± 1.1 m/s	1058.9 ± 1 kg/m3	1316.8 ± 1 m/s	1052.6 ± 1 kg/m3	1294.7 ± 1 m/s	1046.3 ± 1 kg/m3
C1COCCO1 [1,4-dioxane]	1346 ± 1.1 m/s	1027.9 ± 1 kg/m3	1324.4 ± 1.1 m/s	1022.3 ± 1 kg/m3	1302.5 ± 1.1 m/s	1016.6 ± 1 kg/m3	–	–	–	–	–	–
Cc1ccccc1Cl [2-chlorotoluene]	1298.7 ± 1.2 m/s	1077.3 ± 1 kg/m3	1280.7 ± 1.2 m/s	1072.5 ± 1 kg/m3	1262.7 ± 1.2 m/s	1067.6 ± 1 kg/m3	–	–	–	–	–	–

Other lines, results leading:

speed of sound ([1]; 298.15 K)	mass density ([1]; 298.15 K)	speed of sound ([1]; 303.15 K)	mass density ([1]; 303.15 K)	speed of sound ([1]; 308.15 K)	mass density ([1]; 308.15 K)	speed of sound ([2]; 298.15 K)	mass density ([2]; 298.15 K)	speed of sound ([2]; 303.15 K)	mass density ([2]; 303.15 K)	speed of sound ([2]; 308.15 K)	mass density ([2]; 308.15 K)	SMILES
1338.7 ± 1.1 m/s	1058.9 ± 1 kg/m3	1316.8 ± 1 m/s	1052.6 ± 1 kg/m3	1294.7 ± 1 m/s	1046.3 ± 1 kg/m3	–	–	–	–	–	–	C1COCO1 [1,3-dioxolane]
–	–	–	–	–	–	1346 ± 1.1 m/s	1027.9 ± 1 kg/m3	1324.4 ± 1.1 m/s	1022.3 ± 1 kg/m3	1302.5 ± 1.1 m/s	1016.6 ± 1 kg/m3	C1COCCO1 [1,4-dioxane] + Cc1ccccc1Cl
1269.8 ± 1 m/s	879.13 ± 1 kg/m3	1246.8 ± 1 m/s	873.99 ± 1 kg/m3	1224.4 ± 1 m/s	868.83 ± 1 kg/m3	–	–	–	–	–	–	C1CCOCC1 [tetrahydropyran]
–	–	–	–	–	–	1269.8 ± 1 m/s	879.13 ± 1 kg/m3	1246.8 ± 1 m/s	873.99 ± 1 kg/m3	1224.4 ± 1 m/s	868.83 ± 1 kg/m3	C1CCOCC1 [tetrahydropyran] + Cc1ccccc1Cl
